From patent US20230134760A1, “CAR AND NRF2 DUAL ACTIVATOR AGENTS FOR CYCLOPHOSPHAMIDE-BASED AND DOXORUBICIN-BASED TREATMENTS OF CANCER” (priority 2020, published 2023)

How the values were obtained:
hCAR or Nrf2 = assay: all curve and EC50 curve of selected compounds (FIG. 22-35); assay type: cell-based; parameters: key to Emax: fold activation; firefly luciferase normalized to Renilla; settings: figure legend values
Experimental: Cell lysates were assayed for luciferase activity and normalized against the activity of the Renilla luciferase using a Dual-Luciferase Kit (Promega). […] Compound 2, DL7076, was selected for further evaluation based on its effects in activating hCAR and Nrf2 using the HepG2 cell reporter assay (FIGS. 37a-37c).

Nrf2 = Nrf2 luciferase reporter assay in HepG2 cells (ARE); assay type: cell-based; settings: HepG2, screening, FIG. 37b
Experimental: HepG2 cells were cultured in 24-well plates (1×10^5 cells/well) and transfected with either a hCAR1+A expression vector (30 ng/well), a CYP2B6-2.2k reporter (60 ng/well) reporter, and pRL-TK (10 ng/well) or a ARE expression vector using X-tremeGENE 9 DNA Transfection Reagent (Sigma-Aldrich). After an overnight transfection, cells were treated with a vehicle control (0.1% DMSO), RIF (10 μM), DL7076 (1 μM, 5 μM, and 10 μM) for 24 hours. Cell lysates were assayed for luciferase activity and normalized against the activity of the Renilla luciferase using a Dual-Luciferase Kit (Promega).

BT549 cells [1] = assay: Cell viability assay, DOX-induced toxicity in BT549 cells; assay type: cell-based; settings: BT549, DOX 2.5 μM
Experimental: Immortalized triple negative breast cancer cell lines MDA-MB-231 and BT549 were obtained from ATCC (Rockville, Md.). Additionally, the h9c2 cell line was purchased from ATCC (Rockville, Md.). […] Human iPSC-derived cardiomyocytes were maintained in Mtesr plus and supplemented according to protocol. These cells were treated for 2 hrs or an overnight as indicated. Following a 2 hr pretreatment, cells were co-treated with DOX at indicated concentrations for 6 or 22 hours. Following the overnight treatments, RNA or protein was isolated. HPH were seeded in collagen-coated 24 well plates and pretreated for 24 hrs. BT549 were seeded on inverted coverslips. After a 24 hr pretreatment, hepatocytes were co-administered as indicated and coverslips were inserted. The cell lines were used for less than 60 passages. H9c2 cells were seeded 0.8×10^5 in 24-well plates. […] A Cell Counting Kit-8 (Enzo) assay was carried out. Cell viability was described as a percent of vehicle control (0.1% DMSO).

H9c2 cells = assay: Oxidative stress imaging (DFDA) in H9c2 cells; assay type: cell-based, rat; settings: H9c2, DL7076 5 μM, 2-hour pretreatment and 6-hour cotreatment with DOX
Experimental: H9c2 rat cardiomyocytes seeded at 0.8×10^5 in 24-well plates. […] Cells were washed 3× with PBS. Subsequently, 0.5 mL of WEM containing 20 μM 2'-7'-dichlorofluorescein diacetate (DFDA) was added to each well. The cells were incubated at 37° C. and 5% CO2 for 30 min. The oxidation of DFDA to the fluorescent dichlorofluorescein was viewed using fluorescence microscopy (Nikon Eclipse Ti) with a FITC filter at […] and quantified using Brightspot detection for fluorescent detection of triplicate images and normalized to the vehicle control (0.1% DMSO). Cells on coverslips from co-culture experiments were fixed using 4% paraformaldehyde and permealized using Triton-X 100. A primary antibody for mouse anti-phospho-H2AX ([…]) was incubated overnight. Goat anti-mouse IgG Fluor Alexa 488 (1:200) was incubated for 2 hrs. Phosphorylation was calculated through fluorescence intensity all normalized to the vehicle control.

BT549 cells [2] = assay: Phosphorylated H2AX imaging, BT549 cells from multi-organ co-culture; assay type: cell-based; settings: CPA/DOX + DL7076
Experimental: Additionally, HPH were cultured in collagen-coated 6-well plates and pre-treated as described in the previous co-culture system. BT549 and H9c2 cells were plated on similar modified coverslips 0.8×10^5 cells and allowed to attach for 24 hours during hepatocyte pre-treatment. […] Following pre-treatment, BT549 coverslips were inserted adjacent to H9c2 coverslips over the sandwich cultured HPH as depicted in FIG. 43a. […] Both BT549 and H9c2 cells were harvested at indicated time points and assess for viability, apoptosis, and DNA damage as detailed further. H9c2 rat cardiomyocytes seeded at 0.8×10^5 in 24-well plates. […] Cells were washed 3× with PBS. […] The oxidation of DFDA to the fluorescent dichlorofluorescein was viewed using fluorescence microscopy (Nikon Eclipse Ti) with a FITC filter at […] and quantified using Brightspot detection for fluorescent detection of triplicate images and normalized to the vehicle control (0.1% DMSO). […] Phosphorylation was calculated through fluorescence intensity all normalized to the vehicle control. […] The coverslips were visualized at 10× magnification using fluorescence microscopy (Nikon Eclipse Ti) and the amount of phosphorylation was quantified as mean intensity using brightspot detection of quadruplet images of the whole well and normalized to the vehicle control (0.1% DMSO).

O=C(NCCN=C=S)c1c(-c2ccc3ccccc3c2)nc2sccn12 [DL7076, N-(2-Isothiocyanatoethyl)-6-(naphthalen-2-yl)imidazo[2,1-b]thiazole-5-carboxamide]
Emax (hCAR or Nrf2): 2.5
EC50 (hCAR or Nrf2; read-out: EC50): 3.9 µM
Nrf2 luciferase activity (potency and efficacy) (Nrf2): higher potency and efficacy
reversal of DOX-induced toxicity (viability) (BT549 cells [1]): this efficient reversal was not shown
ROS (fluorescence intensity) with cotreatment (H9c2 cells): significantly reduced ROS
H2AX phosphorylation (DNA damage) (BT549 cells [2]): effectively enhanced the CPA/DOX-mediated DNA damage
